ChEMBL document CHEMBL4138047, “Recent advancements in the discovery of protein-protein interaction inhibitors of replication protein A” (Medchemcomm, 2017)

Assays:
[1] = molecular target: T1, Replication protein A 70 kDa DNA-binding subunit (Homo sapiens, UniProt P27694); assay: Binding affinity to RPA70 (unknown origin) by FITC-labeled probe based fluorescence polarization anisotropy
[2] = molecular target: T1, Replication protein A 70 kDa DNA-binding subunit; assay: Inhibition of GST-tagged X-rhodamine-labelled p53TAD2 binding to human recombinant RPA70 expressed in Escherichia coli BL21 by fluorescence anisotropy competition assay
[3] = molecular target: T1, Replication protein A 70 kDa DNA-binding subunit; assay: Binding affinity to human recombinant RPA70 expressed in Escherichia coli BL21 using FPA by tryptophan fluorescence quenching assay
[4] = Binding affinity to human recombinant RPA70 R41E/R43E mutant expressed in Escherichia coli BL21 using FPA by tryptophan fluorescence quenching assay
[5] = Protein binding in human plasma at 1 ug/ml after 4 hrs by LC-MS/MS method; assay type: ADME, cell-free; settings: read-out: PPB (converted)
[6] = Apparent permeability in human Caco2 cells at 5 uM incubated for 120 mins by LC-MS/MS method; assay type: ADME, cell-based; settings: Caco-2

T1 sequence (P27694 whole entry): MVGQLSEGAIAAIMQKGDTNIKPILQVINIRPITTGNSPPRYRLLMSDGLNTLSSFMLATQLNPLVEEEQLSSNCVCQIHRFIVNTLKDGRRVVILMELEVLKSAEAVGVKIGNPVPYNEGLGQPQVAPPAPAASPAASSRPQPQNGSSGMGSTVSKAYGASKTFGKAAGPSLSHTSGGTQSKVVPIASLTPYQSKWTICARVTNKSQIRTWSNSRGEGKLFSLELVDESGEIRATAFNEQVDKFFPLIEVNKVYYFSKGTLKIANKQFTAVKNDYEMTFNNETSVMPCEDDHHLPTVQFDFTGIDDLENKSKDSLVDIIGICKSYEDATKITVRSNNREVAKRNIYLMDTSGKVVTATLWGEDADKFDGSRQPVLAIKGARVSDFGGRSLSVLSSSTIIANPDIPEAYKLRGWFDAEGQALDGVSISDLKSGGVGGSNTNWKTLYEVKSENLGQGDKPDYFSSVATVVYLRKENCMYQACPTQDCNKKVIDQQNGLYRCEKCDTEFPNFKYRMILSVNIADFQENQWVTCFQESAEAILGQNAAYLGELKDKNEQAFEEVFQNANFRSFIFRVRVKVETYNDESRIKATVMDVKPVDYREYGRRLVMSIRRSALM

Row | Kd [1] [µM] | Kd [2] [µM] | Kd [3] [µM] | fraction unbound at 4 h, 1 ug/ml [5] | Papp at 2 h, 5 µM [6] [×10⁻⁶ cm/s] | Compound | Kd [4] [µM]
1 | 30 |  |  |  |  | Cc1ccc(C(=O)Nc2ccccc2C(=O)O)cc1S(=O)(=O)Nc1ccc(Br)cc1 | 
2 |  | 9 | 29 |  |  | CC(C)C1=C[C@@]23CC[C@@H]4[C@](C)(CCC[C@@]4(C)C(=O)O)[C@H]2C[C@@H]1[C@@H](C(=O)O)[C@@H]3C(=O)O | 230
3 | 0.81 |  |  | 0.002 | 29.2 | Cc1ccc(C(=O)Nc2cc(Br)ccc2C(=O)O)cc1S(=O)(=O)Nc1ccc(Cl)c(Cl)c1 | 
